Results from PubChem BioAssay (NCI).
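Values below derive from 48-hour exposures of cells grown in 96-well plates, with endpoints linearly interpolated between the two concentrations bracketing the appropriate inhibition level. The concentration for 50% growth inhibition is given as GI50. Definition used: TGI = concentration required for complete inhibition of growth.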

Legend:
Experiment in all cases: inhibition of tumour cell growth, NCI panel, 48 h
M14 melanoma = tested on: M14 melanoma
NCI-H460 lung = tested on: NCI-H460 lung
OVCAR-8 ovarian = tested on: OVCAR-8 ovarian
MALME-3M melanoma = tested on: MALME-3M melanoma
NCI/ADR-RES ovarian = tested on: NCI/ADR-RES ovarian
SW-620 colon = tested on: SW-620 colon
SK-MEL-2 melanoma = tested on: SK-MEL-2 melanoma
A549 NSCLC = tested on: A549 NSCLC
UACC-62 melanoma = tested on: UACC-62 melanoma
BT-549 breast = tested on: BT-549 breast
EKVX NSCLC = tested on: EKVX NSCLC
NCI-H522 lung = tested on: NCI-H522 lung
A498 renal = tested on: A498 renal
TK-10 renal = tested on: TK-10 renal
SNB-19 CNS = tested on: SNB-19 CNS
K-562 leukemia = tested on: K-562 leukemia
RXF 393 renal = tested on: RXF 393 renal
HCC-2998 colon = tested on: HCC-2998 colon

SMILES | TGI (M14 melanoma) [µM] | TGI (NCI-H460 lung) [µM] | TGI (OVCAR-8 ovarian) [µM] | TGI (MALME-3M melanoma) [µM] | TGI (NCI/ADR-RES ovarian) [µM] | TGI (SW-620 colon) [µM] | TGI (SK-MEL-2 melanoma) [µM] | TGI (A549 NSCLC) [µM] | TGI (UACC-62 melanoma) [µM] | TGI (BT-549 breast) [µM] | TGI (EKVX NSCLC) [µM] | TGI (NCI-H522 lung) [µM] | TGI (A498 renal) [µM] | TGI (TK-10 renal) [µM] | TGI (SNB-19 CNS) [µM] | TGI (K-562 leukemia) [µM] | TGI (RXF 393 renal) [µM] | TGI (HCC-2998 colon) [µM] | GI50 (UACC-62 melanoma) [µM]
O=C1c2cscc2C(=O)C1(O)O | 45.5 | > 100 | > 100 | 54.8 | > 100 | 42.1 | > 100 | > 100 | > 100 | 90.9 | > 100 | 40.3 | > 100 | > 100 | > 100 | > 100 |  |  | 
Cc1cc(C)n(-c2nc3ccccc3c(=O)n2-c2ccccc2)n1 | > 100 | > 100 | > 100 | > 100 | > 100 | > 100 | > 100 | > 100 |  |  |  | > 100 | > 100 | > 100 | > 100 | > 100 | > 100 | > 100 | 
CCN1C(=O)c2ccccc2C1(O)c1ccc(Cl)cc1 (stereo unspecified) | > 100 | > 100 | > 100 |  | > 100 | > 100 | 83.6 | > 100 | > 100 | > 100 | > 100 |  | > 100 | > 100 | > 100 | > 100 |  | > 100 | 
COc1cc2c(cc1OC)C1CCc3ccccc3CN1CC2 (stereo unspecified) | > 100 | > 100 | > 100 | > 100 | > 100 | > 100 | > 100 | > 100 | > 100 |  | > 100 | > 100 | > 100 | > 100 | > 100 | > 100 | > 100 | > 100 | 
COc1ccc2oc(=O)c3c(c2c1C)OC(C)(C)C=C3 | > 100 | > 100 | > 100 | > 100 | > 100 | > 100 | > 100 | > 100 | > 100 | > 100 | > 100 | > 100 | > 100 | > 100 | > 100 | > 100 |  | > 100 | 
CC(C)C1SCc2nc3ccccc3n21 (stereo unspecified) | > 100 | > 100 | > 100 | > 100 | > 100 | > 100 | 79.6 | > 100 | > 100 |  | > 100 | > 100 | 83.3 | > 100 | > 100 | > 100 | > 100 | > 100 | 
CC(C)[Si](OC1=C(C(=O)N(C)c2ccccc2Cl)CCCC1)(C(C)C)C(C)C | 30.2 | 28.6 | 30.2 | 26.4 | 29.6 | 33.3 | 29.3 | 14.3 | 34 |  | 28 | 19.2 | 31 | 29.5 | 25.6 | > 100 | 30.1 | 28.1 | 
COc1ccc(OC)c(C#Cc2ccc(OC)c(C(=O)NCCc3ccc(F)cc3)c2)c1 | > 100 | > 100 | > 100 |  | > 100 | > 100 | > 100 | > 100 | > 100 | > 100 | > 100 | > 100 | > 100 | > 100 | > 100 | > 100 |  | 7.73 | 5.96
COc1ccc2oc(=O)c(CC=C(C)C)c(O)c2c1C | > 100 | > 100 | > 100 | > 100 | > 100 | > 100 | > 100 | > 100 | > 100 | > 100 | > 100 | > 100 | > 100 | > 100 | > 100 | > 100 |  | > 100 | 
COCOCC1CCCN1CN1CCC[C@H]1COCOC (stereo partly specified) | > 100 | > 100 | > 100 |  | > 100 | > 100 | > 100 | > 100 | > 100 |  | > 100 | > 100 | > 100 | > 100 | > 100 | > 100 |  |  | 
CC(C)=C[C@@H]1C[C@H](C)c2c(O)cc(C)c3c2C1=C(C)C(=O)C3=O | 27 | 48.8 | 35.2 | 29.4 | 49.6 | 32.4 |  | 21.7 | 29.6 | 28.1 | 33 | 28.8 | 37.4 | 45.9 | 29.1 | 40.1 |  | 54.3 | 
CSCCCNC(=O)c1csc(-c2csc(CCN)n2)n1 | > 100 | > 100 | > 100 | > 100 | > 100 | > 100 |  | > 100 | > 100 | > 100 | > 100 | > 100 |  | > 100 | > 100 | > 100 | > 100 | > 100 | 
CN(C)c1nc(=NCc2cccs2)ss1 | > 10 | > 10 | > 10 | > 10 | > 10 | > 10 |  | > 10 | > 10 |  | > 10 | 9.57 | > 10 | > 10 | > 10 | > 10 | > 10 | > 10 | 
CN(C)CCNC(=O)Cn1ccc(=O)c2ccc([N+](=O)[O-])cc21 | > 100 | > 100 |  | > 100 | > 100 | > 100 | > 100 | > 100 | > 100 |  | > 100 | > 100 | > 100 | > 100 | > 100 | > 100 | > 100 | > 100 | 
